From ChEMBL document CHEMBL1201862, “PubChem BioAssay data set” (2004)
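48-hour exposure; five concentrations; linearly interpolated endpoints. GI50 is the concentration that inhibits growth by half.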 Active and inactive are the calls of the source. No stated cut-off is given here; in the data, active = GI50 up to about 1.1 µM and inactive = higher.

Tests used:
Test in all cases: inhibition of tumour cell growth, NCI panel, 48 h
MDA-N = system: MDA-N
BT-549 = system: BT-549
KM-20L2 = system: KM-20L2
SNB-78 = system: SNB-78
M19-MEL = system: M19-MEL
DLD-1 = system: DLD-1
XF498 = system: XF498
HOP-18 = system: HOP-18
RXF 631 = system: RXF 631

SMILES	GI50 (MDA-N)	GI50 (BT-549)	further results
COc1cc(C(=O)O)c(-c2cc3c(cc2C=O)OCO3)c(OC)c1OC	> 10 µM (inactive)	> 10 µM (inactive)	
C1=N\CCNCC/N=C/c2ccccc2OCc2cccc(n2)COc2ccccc2/1	3.18 µM (inactive)	12 µM (inactive)	
[Se]=P(c1ccccc1)(c1ccccc1)c1ccc(C(c2ccccc2)=P(c2ccccc2)(c2ccccc2)c2ccccc2)cc1	0.753 µM (active)	0.929 µM (active)	
COc1ccc(C(c2c(O)c3ccccc3n(-c3ccccc3)c2=O)c2c(O)c3ccccc3n(-c3ccccc3)c2=O)cc1			GI50 (KM-20L2): > 100 µM (inactive); GI50 (SNB-78): > 100 µM (inactive); GI50 (M19-MEL): > 100 µM (inactive); GI50 (DLD-1): > 100 µM (inactive); GI50 (XF498): 59.3 µM (inactive); GI50 (HOP-18): > 100 µM (inactive)
O=C1OS2(OCc3cccc4cccc2c34)c2ccccc21 (configuration not stated)	> 100 µM (inactive)	> 100 µM (inactive)	
Cc1c(/C=N/NC(=S)Nc2cccc(Cl)c2)c(=O)n(-c2ccccc2)n1C		21.4 µM (inactive)	
Cc1ccc(C(=O)N/N=C(\N=N\c2cccc([N+](=O)[O-])c2)c2ccc(N(C)C)cc2)cc1	20.7 µM (inactive)	47.8 µM (inactive)	
COc1ccc(C(=O)Cn2c(C(=O)/C=C/c3ccco3)nc3ccccc32)cc1	26 µM (inactive)	34.4 µM (inactive)	
CC[N+]1(C)CCC(O)(c2ccccc2)C(C(=O)c2ccccc2)C1 (configuration not stated)		9.02 µM (inactive)	GI50 (KM-20L2): 19.5 µM (inactive); GI50 (M19-MEL): 18.4 µM (inactive); GI50 (DLD-1): 7.93 µM (inactive); GI50 (HOP-18): 13.7 µM (inactive)
O=C(Nc1c(Cl)cc([N+](=O)[O-])cc1Cl)/C(=N\Nc1cccc(Cl)c1)c1c(O)c2ccccc2oc1=O			GI50 (KM-20L2): > 100 µM (inactive); GI50 (M19-MEL): > 100 µM (inactive); GI50 (DLD-1): 42.9 µM (inactive); GI50 (RXF 631): 53.6 µM (inactive)
CC(=S)NC=C(C(N)=O)C(N)=O	> 100 µM (inactive)	> 100 µM (inactive)	
COC(=O)/N=[N+](\[O-])C(c1ccccc1)c1ccccc1	59.2 µM (inactive)	> 100 µM (inactive)	
COc1cc2c(c(O)c1O)C(=O)C1CCC(=O)N1C2c1cccc2ccccc12 (configuration not stated)	> 50 µM (inactive)	> 50 µM (inactive)	
O=S1(=O)N=C(NCc2c[nH]c3ccccc23)N(c2ccccc2)c2ccncc21		55.1 µM (inactive)	
COC(=O)C1C(O)C(C)C(O)C(C)C=C(C)C2=C3C(=C(C)C(=O)c4c(O)c(c(C)c(OC(C)=O)c43)NC(=O)C(C)=C/C=C\C(C)C(O)C(C)C1O)OCO2 (configuration not stated)	16.9 µM (inactive)	19.6 µM (inactive)	
O=C(O)[C@@H]1NC[C@H]2C(Br)=NO[C@H]21	> 100 µM (inactive)	> 100 µM (inactive)	
Cn1nc(C(=O)N2CC(CCl)c3c2cc([N+](=O)[O-])c2ccccc32)cc1NC(=O)Nc1cc(C(=O)N2CC(CCl)c3c2cc([N+](=O)[O-])c2ccccc32)nn1C (configuration not stated)	> 100 µM (inactive)	> 100 µM (inactive)	
Nc1nc(Cl)cc(OCC2(CO)CC=CC2)n1	> 100 µM (inactive)		

SMILES	GI50 (MDA-N)	GI50 (BT-549)	further results
CCOC(=O)C1C=C1C(C)(C)O (configuration not stated)		> 10 µM (inactive)	
CCOC(=O)CN(Cn1cncn1)Cn1cncn1			GI50 (KM-20L2): 22.5 µM (inactive); GI50 (SNB-78): 91 µM (inactive); GI50 (M19-MEL): 38.7 µM (inactive); GI50 (DLD-1): 34.9 µM (inactive); GI50 (XF498): 20.4 µM (inactive); GI50 (HOP-18): 32.8 µM (inactive)
C#C[C@@]1(O)CCCC2=CC(=O)C[C@]21C			GI50 (M19-MEL): > 100 µM (inactive); GI50 (DLD-1): > 100 µM (inactive); GI50 (XF498): > 100 µM (inactive); GI50 (HOP-18): > 100 µM (inactive)
COc1cccc2ccc(C(=O)c3ccccc3)nc12			GI50 (KM-20L2): > 100 µM (inactive); GI50 (SNB-78): > 100 µM (inactive); GI50 (DLD-1): > 100 µM (inactive); GI50 (XF498): > 100 µM (inactive)
CN(C)CCCC12CCCCC1=Nc1ccccc12 (configuration not stated)	> 100 µM (inactive)	> 100 µM (inactive)	
CCCC(C)NC1=C(NC(C)=O)C(=O)c2ccccc2C1=O (configuration not stated)			GI50 (KM-20L2): > 100 µM (inactive); GI50 (SNB-78): > 100 µM (inactive); GI50 (M19-MEL): 62.7 µM (inactive); GI50 (DLD-1): > 100 µM (inactive); GI50 (XF498): > 100 µM (inactive)
COc1cc(OC)cc(-c2nc3cc(F)ccc3s2)c1	> 100 µM (inactive)	11 µM (inactive)	
CC(=O)NC(CCC(=O)C=[N+]=[N-])C(=O)O (configuration not stated)	> 100 µM (inactive)	> 100 µM (inactive)	
C/C(=N\Nc1nc2ccccc2o1)c1ccncn1		5.19 µM (inactive)	
N#C[BH2-][n+]1cn(C2CC(OP(=O)(O)OCC3OC(n4cnc5c(N)ncnc54)CC3O)C(CO)O2)c2nc(N)[nH]c(=O)c21 (configuration not stated)	> 100 µM (inactive)	> 100 µM (inactive)	
COc1cc(C2c3cc4c(cc3[C@@H](Nc3ccc(F)cc3)C3CO[C@@H](O)[C@H]23)OCO4)cc(OC)c1O (some centres not stated)	22.2 µM (inactive)		
SC1=Nc2ccccc2-c2nc(-c3cccc(Cl)c3)cc(-c3ccccc3)c2C1	3.48 µM (inactive)	5 µM (inactive)	
O=c1c(C(c2ccc3ccccc3c2)c2c(O)oc3ccccc3c2=O)c(O)oc2ccccc12	27.4 µM (inactive)	24.8 µM (inactive)	
CC(=O)Nc1ccc(-c2nc3ccccc3s2)cc1O	29.6 µM (inactive)		
COc1ccc(C(=O)c2sc(Nc3ccc(Cl)cc3)nc2N)cc1	2.37 µM (inactive)	> 38.5 µM (inactive)	
COC(=O)C[S+]([O-])c1ccccc1 (configuration not stated)			GI50 (SNB-78): 33.5 µM (inactive); GI50 (M19-MEL): 30.5 µM (inactive); GI50 (DLD-1): 29.1 µM (inactive); GI50 (XF498): 76.7 µM (inactive)
CC1=C(CO)C(=O)O[C@@H]([C@@H](C)[C@H]2CC[C@H]3[C@@H]4C[C@H]5O[C@]56[C@@H](O)C=CC(=O)[C@]6(C)[C@H]4CC[C@]23C)C1 [WITHAFERIN A]			GI50 (KM-20L2): 0.392 µM (active); GI50 (M19-MEL): 1.5 µM (inactive); GI50 (DLD-1): 0.303 µM (active); GI50 (XF498): 1.43 µM (inactive)
